According to PubChem BioAssay (NCI):
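Five concentrations, 48 hours, 96-well plates. GI50 = concentration required for 50% inhibition of growth. The concentration for full growth arrest is given as TGI.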

Assays:
Test in all cases: inhibition of tumour cell growth, NCI panel, 48 h; in the data active = GI50 below about 0.43 µM; inactive = the rest
SR leukemia = test system: SR leukemia
UACC-62 melanoma = test system: UACC-62 melanoma
UO-31 renal = test system: UO-31 renal
NCI-H522 lung = test system: NCI-H522 lung
OVCAR-3 ovarian = test system: OVCAR-3 ovarian
SNB-75 CNS = test system: SNB-75 CNS
TK-10 renal = test system: TK-10 renal
M14 melanoma = test system: M14 melanoma
CCRF-CEM leukemia = test system: CCRF-CEM leukemia
SF-295 CNS = test system: SF-295 CNS
MOLT-4 leukemia = test system: MOLT-4 leukemia
SK-MEL-2 melanoma = test system: SK-MEL-2 melanoma
HT29 colon = test system: HT29 colon
SF-268 CNS = test system: SF-268 CNS
NCI-H226 lung = test system: NCI-H226 lung
RPMI-8226 leukemia = test system: RPMI-8226 leukemia
SK-MEL-28 melanoma = test system: SK-MEL-28 melanoma
SN12C renal = test system: SN12C renal
UACC-257 melanoma = test system: UACC-257 melanoma
SF-539 CNS = test system: SF-539 CNS
CAKI-1 renal = test system: CAKI-1 renal
U251 CNS = test system: U251 CNS
RXF 393 renal = test system: RXF 393 renal
K-562 leukemia = test system: K-562 leukemia
HCT-15 colon = test system: HCT-15 colon
COLO 205 colon = test system: COLO 205 colon
T-47D breast = test system: T-47D breast
A549 NSCLC = test system: A549 NSCLC
SK-OV-3 ovarian = test system: SK-OV-3 ovarian
HOP-92 NSCLC = test system: HOP-92 NSCLC
LOX IMVI melanoma = test system: LOX IMVI melanoma
NCI-H23 lung = test system: NCI-H23 lung
MALME-3M melanoma = test system: MALME-3M melanoma
MDA-MB-231 breast = test system: MDA-MB-231 breast
HL-60(TB) leukemia = test system: HL-60(TB) leukemia
PC-3 prostate = test system: PC-3 prostate
KM12 colon = test system: KM12 colon
MCF7 breast = test system: MCF7 breast
MDA-MB-435 = test system: MDA-MB-435
OVCAR-5 ovarian = test system: OVCAR-5 ovarian
HS 578T breast = test system: HS 578T breast
HCC-2998 colon = test system: HCC-2998 colon
SK-MEL-5 melanoma = test system: SK-MEL-5 melanoma
SW-620 colon = test system: SW-620 colon
IGROV1 ovarian = test system: IGROV1 ovarian
HOP-62 NSCLC = test system: HOP-62 NSCLC
HCT-116 colon = test system: HCT-116 colon
NCI-H460 lung = test system: NCI-H460 lung
NCI/ADR-RES ovarian = test system: NCI/ADR-RES ovarian
786-0 renal = test system: 786-0 renal
OVCAR-4 ovarian = test system: OVCAR-4 ovarian
BT-549 breast = test system: BT-549 breast
A498 renal = test system: A498 renal
OVCAR-8 ovarian = test system: OVCAR-8 ovarian
SNB-19 CNS = test system: SNB-19 CNS
ACHN renal = test system: ACHN renal
DU-145 prostate = test system: DU-145 prostate

O=C1NC(=NCc2ccccc2Br)S/C1=C\c1ccc2ncccc2c1
> 22 µM: TGI (UO-31 renal)
> 25 µM: TGI (UACC-62 melanoma) | TGI (OVCAR-3 ovarian) | TGI (TK-10 renal) | TGI (M14 melanoma) | TGI (CCRF-CEM leukemia) | TGI (SF-295 CNS) | TGI (MOLT-4 leukemia) | TGI (HT29 colon) | TGI (SF-268 CNS) | TGI (NCI-H226 lung) | TGI (RPMI-8226 leukemia) | TGI (SK-MEL-28 melanoma) | TGI (SN12C renal) | TGI (UACC-257 melanoma) | TGI (SF-539 CNS) | TGI (CAKI-1 renal) | TGI (U251 CNS) | TGI (RXF 393 renal) | TGI (K-562 leukemia) | TGI (HCT-15 colon) | TGI (COLO 205 colon) | TGI (A549 NSCLC) | TGI (LOX IMVI melanoma) | TGI (NCI-H23 lung) | TGI (MALME-3M melanoma) | TGI (MDA-MB-231 breast) | TGI (PC-3 prostate) | TGI (KM12 colon) | TGI (MCF7 breast) | TGI (MDA-MB-435) | TGI (OVCAR-5 ovarian) | TGI (HCC-2998 colon) | TGI (SK-MEL-5 melanoma) | TGI (SW-620 colon) | TGI (HCT-116 colon) | TGI (NCI-H460 lung) | TGI (NCI/ADR-RES ovarian) | TGI (786-0 renal) | TGI (OVCAR-4 ovarian) | TGI (OVCAR-8 ovarian) | TGI (SNB-19 CNS) | TGI (ACHN renal) | TGI (DU-145 prostate)
> 22.3 µM: TGI (BT-549 breast)
16.5 µM: TGI (NCI-H522 lung)
> 21.2 µM: TGI (IGROV1 ovarian)
24.5 µM: TGI (T-47D breast)
24.4 µM: TGI (HS 578T breast)
> 18.6 µM: TGI (SK-OV-3 ovarian)
19 µM: TGI (SK-MEL-2 melanoma)
> 23.4 µM: TGI (HL-60(TB) leukemia)
> 23.7 µM: TGI (SNB-75 CNS)
> 23.3 µM: TGI (HOP-92 NSCLC)
8.39 µM: TGI (SR leukemia)
> 17.5 µM: TGI (HOP-62 NSCLC)
inactive: GI50 (SR leukemia) 1.03 µM | GI50 (UACC-62 melanoma) 11.8 µM | GI50 (UO-31 renal) 8.08 µM | GI50 (NCI-H522 lung) 6.22 µM | GI50 (OVCAR-3 ovarian) 10 µM | GI50 (SNB-75 CNS) 3.82 µM | GI50 (TK-10 renal) 14.8 µM | GI50 (M14 melanoma) 11.1 µM | GI50 (CCRF-CEM leukemia) 7.26 µM | GI50 (SF-295 CNS) 8.03 µM | GI50 (MOLT-4 leukemia) 10 µM | GI50 (SK-MEL-2 melanoma) 7.66 µM | GI50 (HT29 colon) 10.7 µM | GI50 (SF-268 CNS) 7.83 µM | GI50 (NCI-H226 lung) 8.06 µM | GI50 (RPMI-8226 leukemia) 8.74 µM | GI50 (SK-MEL-28 melanoma) > 20.5 µM | GI50 (SN12C renal) 9.31 µM | GI50 (UACC-257 melanoma) 17.8 µM | GI50 (SF-539 CNS) 5.84 µM | GI50 (CAKI-1 renal) 7.18 µM | GI50 (U251 CNS) 4.77 µM | GI50 (RXF 393 renal) 8.07 µM | GI50 (K-562 leukemia) 8.19 µM | GI50 (HCT-15 colon) 4.36 µM | GI50 (COLO 205 colon) 5.4 µM | GI50 (T-47D breast) 6.78 µM | GI50 (A549 NSCLC) 5.99 µM | GI50 (SK-OV-3 ovarian) 8.11 µM | GI50 (HOP-92 NSCLC) 6.89 µM | GI50 (LOX IMVI melanoma) 4.7 µM | GI50 (NCI-H23 lung) 11.5 µM | GI50 (MALME-3M melanoma) > 15.3 µM | GI50 (MDA-MB-231 breast) 15 µM | GI50 (HL-60(TB) leukemia) 7.96 µM | GI50 (PC-3 prostate) 15.2 µM | GI50 (KM12 colon) 10.6 µM | GI50 (MCF7 breast) 4.07 µM | GI50 (MDA-MB-435) 5.62 µM | GI50 (OVCAR-5 ovarian) > 25 µM | GI50 (HS 578T breast) 6.28 µM | GI50 (HCC-2998 colon) 24.3 µM | GI50 (SK-MEL-5 melanoma) 10.4 µM | GI50 (SW-620 colon) 6.71 µM | GI50 (IGROV1 ovarian) 7.68 µM | GI50 (HOP-62 NSCLC) 5.93 µM | GI50 (HCT-116 colon) 2.74 µM | GI50 (NCI-H460 lung) 6.1 µM | GI50 (NCI/ADR-RES ovarian) 11.9 µM | GI50 (786-0 renal) 9.43 µM | GI50 (OVCAR-4 ovarian) 7.35 µM | GI50 (BT-549 breast) 6.32 µM | GI50 (A498 renal) 5.55 µM | GI50 (OVCAR-8 ovarian) 9.14 µM | GI50 (SNB-19 CNS) 9.4 µM | GI50 (ACHN renal) 10.6 µM | GI50 (DU-145 prostate) 8.69 µM
> 21.4 µM: TGI (A498 renal)
